# Assay results reported in ChEMBL document CHEMBL3046574, “Synthesis and Insecticidal Activity of 2-Alkoxy-4H-l,3,2-benzoxazaphosphorin-2-thiones” (1992).
# Assays:
# Type in all cases: functional
# [1] = tested on: Laodelphax striatellus; test: Insecticidal activity against Laodelphax striatella (small brown planthopper) assessed as mortality at 500 ppm by root soaking method
# [2] = tested on: Spodoptera litura; test: Insecticidal activity against Spodoptera litura assessed as mortality at 1000 ppm by leaf dipping method; settings: foliar
# [3] = tested on: Laodelphax striatellus; test: Insecticidal activity against Laodelphax striatella (small brown planthopper) assessed as mortality at 50 ppm by root soaking method
# [4] = tested on: Spodoptera litura; test: Insecticidal activity against Spodoptera litura LC50 assessed as mortality by leaf dipping method; settings: foliar
Compound,mortality at 500 ppm [1] [%],mortality at 1000 ppm [2] [%],mortality at 50 ppm [3] [%],LC50 [4] [µg/mL]
CCOP1(=S)Oc2ccccc2CN1CC (stereo not given),97,93,–,–
CCCN1Cc2ccccc2OP1(=S)OCC (stereo not given),40,73,–,–
CCOP1(=S)Oc2ccccc2CN1C(C)C (stereo not given),43,90,–,–
C=CCN1Cc2ccccc2OP1(=S)OC (stereo not given),97,93,–,–
C=CCN1Cc2ccccc2OP1(=S)OCC (stereo not given),50,50,–,–
CCOP1(=S)Oc2ccc(Cl)cc2CN1CC (stereo not given),10,20,–,–
COP1(=S)Oc2ccc(Cl)cc2CN1C(C)C (stereo not given),73,40,–,–
CCOP1(=S)Oc2ccc(Cl)cc2CN1C(C)C (stereo not given),87,33,–,–
CCCOP1(=S)Oc2ccc(Cl)cc2CN1C(C)C (stereo not given),0,0,–,–
CCCN1Cc2cc(Cl)ccc2OP1(=S)OCC (stereo not given),0,0,–,–
C=CCN1Cc2cc(Cl)ccc2OP1(=S)OCC (stereo not given),0,0,–,–
C=CCN1Cc2cc(Cl)ccc2OP1(=S)OCCC (stereo not given),0,13,–,–
CCOP1(=S)Oc2ccc(Cl)cc2CN1CC(C)C (stereo not given),0,30,–,–
CCCOP1(=S)Oc2ccc(Cl)cc2CN1CC(C)C (stereo not given),0,0,–,–
CCOP1(=S)Oc2cc(Cl)c(Cl)cc2CN1CC(C)C (stereo not given),0,57,–,–
CCCOP1(=S)Oc2cc(Cl)c(Cl)cc2CN1CC(C)C (stereo not given),0,17,–,–
CCOP1(=S)Oc2ccc(Br)cc2CN1CC (stereo not given),0,27,–,–

Compound,mortality at 500 ppm [1] [%],mortality at 1000 ppm [2] [%],mortality at 50 ppm [3] [%],LC50 [4] [µg/mL]
COP1(=S)Oc2ccc(Br)cc2CN1C(C)C (stereo not given),100,60,85,–
CCOP1(=S)Oc2ccc(Br)cc2CN1C(C)C (stereo not given),100,63,87,–
C=CCN1Cc2cc(Br)ccc2OP1(=S)OC (stereo not given),0,18,–,–
C=CCN1Cc2cc(Br)ccc2OP1(=S)OCC (stereo not given),0,20,–,–
C=CCN1Cc2cc(Br)ccc2OP1(=S)OCCC (stereo not given),0,0,–,–
COP1(=S)Oc2ccc(Br)cc2CN1CC(C)C (stereo not given),0,0,–,–
CCOP1(=S)Oc2ccc(Br)cc2CN1CC(C)C (stereo not given),0,0,–,–
CCCOP1(=S)Oc2ccc(Br)cc2CN1CC(C)C (stereo not given),0,0,–,–
CCOP1(=S)Oc2cc(Br)c(Br)cc2CN1C(C)C (stereo not given),0,0,–,–
CCN1Cc2cc([N+](=O)[O-])ccc2OP1(=S)OC (stereo not given),0,0,–,–
CCOP1(=S)Oc2ccc([N+](=O)[O-])cc2CN1CC (stereo not given),0,0,–,–
CCCOP1(=S)Oc2ccc([N+](=O)[O-])cc2CN1CC (stereo not given),0,0,–,–
CCOP1(=S)Oc2ccc([N+](=O)[O-])cc2CN1C(C)C (stereo not given),0,0,–,–
CCN1Cc2ccccc2OP1(=S)OC (stereo not given),83,97,–,–
CCOC(=O)CC(SP(=S)(OC)OC)C(=O)OCC (stereo not given) [MALATHION],100,100,100,8.3
CNC(=O)Oc1ccccc1OC(C)C [PROPOXUR],100,–,16.1,–
